Common to all, as to type: cell-based
The target in one assay is T1, hGIPR (Homo sapiens, UniProt P48546).
T1 construct: expressed in transfected cells
T1 sequence (P48546 22-466): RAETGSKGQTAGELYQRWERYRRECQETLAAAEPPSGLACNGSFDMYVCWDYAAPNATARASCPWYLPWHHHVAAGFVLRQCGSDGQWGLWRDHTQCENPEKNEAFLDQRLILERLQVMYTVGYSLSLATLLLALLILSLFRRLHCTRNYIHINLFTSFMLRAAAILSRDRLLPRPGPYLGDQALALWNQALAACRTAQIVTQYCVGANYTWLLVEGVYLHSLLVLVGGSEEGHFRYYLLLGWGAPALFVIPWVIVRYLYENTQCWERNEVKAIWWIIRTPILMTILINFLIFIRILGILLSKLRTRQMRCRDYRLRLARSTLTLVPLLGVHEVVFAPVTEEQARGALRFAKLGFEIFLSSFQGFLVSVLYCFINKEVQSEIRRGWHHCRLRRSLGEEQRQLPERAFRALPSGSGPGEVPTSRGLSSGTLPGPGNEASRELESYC
Briefly: Functional cAMP formation (HTRF) in HEK-293 clonal cells expressing hGIPR, 0.1% bovine casein, without or with 1.0% human serum albumin. Particulars: for EC50: cAMP, 0.1% bovine casein (no human serum albumin), geometric mean. In a few lines:
(§1)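 Cells were stimulated with peptide for 30 min at 37° C, then intracellular cAMP was measured by competitive HTRF (665/620 nm ratio) and converted to nM using a cAMP standard curve. Relative EC50 and Emax came from four-parameter logistic fits of percent maximal response against peptide concentration.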
In general terms: Changes in cAMP serve as a functional read-out for many G protein-coupled receptors.

The target in the next assay is hGLP-1R (Homo sapiens, UniProt P43220). Briefly: Functional cAMP formation (HTRF) in HEK-293 clonal cells expressing hGLP-1R, 0.1% bovine casein, without or with 1.0% human serum albumin. Set-up: expressed in transfected cells. Particulars: for Emax: percent of maximal response to GLP-1(7-36)NH2; for EC50: geometric mean. In a few lines:
as §1

The target in the next assay is T2, hGCGR (Homo sapiens, UniProt P47871).
T2 construct: expressed in transfected cells
Briefly: Functional cAMP formation (HTRF) in HEK-293 clonal cells expressing hGCGR, 0.1% bovine casein, without or with 1.0% human serum albumin. In a few lines: as §1

[1] abbreviates: 37° C., read-out: hGIPR EC50, nM (SEM, n).
The mark [2] stands for this setting: cAMP, 37° C., 0.1% bovine casein (no human serum albumin), geometric mean, read-out: hGCGR EC50, nM (SEM, n).
[3] abbreviates: HEK293, 0.1% bovine casein and 1.0% human serum albumin, 37° C., percent of maximal response to GIP(1-42)NH2, read-out: hGIPR Emax, % ± SEM.
[4] abbreviates: 0.1% bovine casein and 1.0% human serum albumin, 37° C., geometric mean, read-out: hGCGR EC50, nM (SEM, n).

The structures appear in SMILES notation. Read-outs that look alike come from different tables or passages of the source. Where a SMILES comes first, the peptide text is derived from it. Side-chain parts run from the residue outwards. [ ]: non-standard residue; d: D form. The star is where a group is joined. αMePhe(2-F) = C[C@](N)(Cc1ccccc1F)C(=O)O; C14 diacid = O=C(O)CCCCCCCCCCCCC(=O)*; αMeY = C[C@](N)(Cc1ccc(O)cc1)C(=O)O; αMeL = CC(C)C[C@](C)(N)C(=O)O; Orn = NCCC[C@H](N)C(=O)O; AEEA = NCCOCCOCC(=O)O; Aib = CC(C)(N)C(=O)O

T2 sequence (P47871 26-477): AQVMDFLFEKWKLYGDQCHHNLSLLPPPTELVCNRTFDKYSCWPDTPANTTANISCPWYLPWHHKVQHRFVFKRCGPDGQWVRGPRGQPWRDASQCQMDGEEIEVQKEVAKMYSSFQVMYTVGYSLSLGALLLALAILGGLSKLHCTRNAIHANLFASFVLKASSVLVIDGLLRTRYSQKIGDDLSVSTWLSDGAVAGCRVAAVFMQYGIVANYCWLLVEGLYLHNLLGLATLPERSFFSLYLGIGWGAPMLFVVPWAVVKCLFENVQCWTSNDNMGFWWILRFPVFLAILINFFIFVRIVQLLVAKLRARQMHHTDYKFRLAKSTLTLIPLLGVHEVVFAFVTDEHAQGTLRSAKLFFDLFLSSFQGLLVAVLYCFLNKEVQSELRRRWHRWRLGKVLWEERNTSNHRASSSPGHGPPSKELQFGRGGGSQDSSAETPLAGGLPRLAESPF
Sequence of hGLP-1R (P43220 24-463): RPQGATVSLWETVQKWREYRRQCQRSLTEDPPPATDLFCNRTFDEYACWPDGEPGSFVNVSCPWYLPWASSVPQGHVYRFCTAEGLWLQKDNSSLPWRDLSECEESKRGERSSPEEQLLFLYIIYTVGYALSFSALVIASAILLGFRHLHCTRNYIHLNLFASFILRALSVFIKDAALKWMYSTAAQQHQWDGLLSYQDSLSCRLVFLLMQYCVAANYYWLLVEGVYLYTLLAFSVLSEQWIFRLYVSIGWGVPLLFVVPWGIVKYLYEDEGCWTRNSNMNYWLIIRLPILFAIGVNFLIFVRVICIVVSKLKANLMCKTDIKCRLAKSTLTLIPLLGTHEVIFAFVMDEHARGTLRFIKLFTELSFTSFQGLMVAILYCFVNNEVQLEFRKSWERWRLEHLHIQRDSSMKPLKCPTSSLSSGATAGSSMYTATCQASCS

On to `CC[C@H](C)[C@H](NC(=O)[C@H](CCCN)NC(=O)[C@H](CC(=O)O)NC(=O)[C@H](CC(C)C)NC(=O)[C@](C)(CC(C)C)NC(=O)[C@@H](NC(=O)C(C)(C)NC(=O)[C@H](Cc1ccc(O)cc1)NC(=O)[C@H](CC(=O)O)NC(=O)[C@H](CO)NC(=O)[C@@H](NC(=O)[C@](C)(Cc1ccccc1F)NC(=O)[C@@H](NC(=O)CNC(=O)[C@H](CCC(=O)O)NC(=O)C(C)(C)NC(=O)[C@@H](N)Cc1ccc(O)cc1)[C@@H](C)O)[C@@H](C)O)[C@@H](C)CC)C(=O)N[C@@H](C)C(=O)N[C@@H](CCC(N)=O)C(=O)NC(C)(C)C(=O)N[C@@H](CCC(=O)O)C(=O)N[C@@H](Cc1ccccc1)C(=O)N[C@H](C(=O)N[C@@H](CCCCNC(=O)COCCOCCNC(=O)COCCOCCNC(=O)CC[C@H](NC(=O)CCCCCCCCCOc1ccc(C(=O)O)cc1)C(=O)O)C(=O)N[C@@](C)(Cc1ccc(O)cc1)C(=O)N[C@@H](CC(C)C)C(=O)N[C@H](C(=O)N[C@@H](CCCCNC(=O)COCCOCCNC(=O)COCCOCCNC(=O)CC[C@H](NC(=O)CCCCCCCCCOc1ccc(C(=O)O)cc1)C(=O)O)C(=O)NCC(=O)NCC(=O)N1CCC[C@H]1C(=O)N[C@@H](CO)C(=O)N[C@@H](CO)C(=O)NCC(=O)N[C@@H](C)C(=O)N1CCC[C@H]1C(=O)N1CCC[C@H]1C(=O)N1CCC[C@H]1C(=O)N[C@@H](CO)C(N)=O)[C@@H](C)CC)[C@@H](C)CC` [Example 239], for which the Emax stood at 89.1% on hGIPR (HEK293, read-out: hGIPR Emax, % ± SEM, 0.1% bovine casein and 1.0% human serum albumin, 37° C., percent of maximal response to GIP(1-42)NH2); 109% at hGLP-1R (HEK293, read-out: hGLP-1R Emax, % ± SEM, 0.1% bovine casein and 1.0% human serum albumin, 37° C.). Also, the EC50 was 0.0328 nM at hGIPR (hGIPR EC50, nM (SEM, n), incubated at 37° C.); 0.546 nM on hGLP-1R (hGLP-1R EC50, nM (SEM, n), cAMP, incubated at 37° C., 0.1% bovine casein (no human serum albumin)); over 9950 nM at hGCGR (hGCGR EC50, nM (SEM, n), 0.1% bovine casein and 1.0% human serum albumin, 37° C., geometric mean); over 9950 nM on hGCGR (hGCGR EC50, nM (SEM, n), cAMP, incubated at 37° C., 0.1% bovine casein (no human serum albumin), geometric mean).

Regarding `CC[C@H](C)[C@H](NC(=O)[C@H](CCCN)NC(=O)[C@H](CC(=O)O)NC(=O)[C@H](CC(C)C)NC(=O)[C@](C)(CC(C)C)NC(=O)[C@@H](NC(=O)C(C)(C)NC(=O)[C@@H](NC(=O)[C@H](CC(=O)O)NC(=O)[C@H](CO)NC(=O)[C@@H](NC(=O)[C@](C)(Cc1ccccc1F)NC(=O)[C@@H](NC(=O)CNC(=O)[C@H](CCC(=O)O)NC(=O)C(C)(C)NC(=O)[C@@H](N)Cc1ccc(O)cc1)[C@@H](C)O)[C@@H](C)O)C(C)C)[C@@H](C)CC)C(=O)N[C@@H](C)C(=O)N[C@@H](CCC(N)=O)C(=O)NC(C)(C)C(=O)N[C@@H](CCCCNC(=O)COCCOCCNC(=O)COCCOCCNC(=O)CC[C@H](NC(=O)CCCCCCCCCCCCC(=O)O)C(=O)O)C(=O)N[C@@H](Cc1ccccc1)C(=O)N[C@H](C(=O)N[C@H](CCC(=O)O)C(=O)N[C@@](C)(Cc1ccc(O)cc1)C(=O)N[C@@H](CC(C)C)C(=O)N[C@H](C(=O)N[C@@H](CCCCNC(=O)COCCOCCNC(=O)COCCOCCNC(=O)CC[C@H](NC(=O)CCCCCCCCCCCCC(=O)O)C(=O)O)C(=O)NCC(=O)NCC(=O)N1CCC[C@H]1C(=O)N[C@@H](CO)C(=O)N[C@@H](CO)C(=O)NCC(=O)N[C@@H](C)C(=O)N1CCC[C@H]1C(=O)N1CCC[C@H]1C(=O)N1CCC[C@H]1C(=O)N[C@@H](CO)C(N)=O)[C@@H](C)CC)[C@@H](C)CC` [Example 329], the Emax is 100% at hGIPR (HEK293, cAMP, 37° C., 0.1% bovine casein and 1.0% human serum albumin, percent of maximal response to GIP(1-42)NH2, read-out: hGIPR Emax, % ± SEM); 109% on hGIPR (HEK293, cAMP, 37° C., 0.1% bovine casein, percent of maximal response to GIP(1-42)NH2, arithmetic mean, read-out: hGIPR Emax, % ± SEM); 88.3% on hGLP-1R (HEK293, cAMP, 37° C., 0.1% bovine casein and 1.0% human serum albumin, read-out: hGLP-1R Emax, % ± SEM). For the same compound, the EC50 at hGIPR (setting [1]) is 0.015 nM; on hGLP-1R (cAMP, 37° C., 0.1% bovine casein (no human serum albumin), read-out: hGLP-1R EC50, nM (SEM, n)), 0.353 nM; on hGCGR (setting [2]), over 9950 nM; at hGCGR (cAMP, 37° C., 0.1% bovine casein and 1.0% human serum albumin, geometric mean (SEM, n), read-out: hGCGR EC50, nM (SEM, n)), over 9950 nM.

As for `CC[C@H](C)[C@H](NC(=O)[C@H](CCCN)NC(=O)[C@H](CC(=O)O)NC(=O)[C@H](CC(C)C)NC(=O)[C@](C)(CC(C)C)NC(=O)[C@@H](NC(=O)[C@H](CO)NC(=O)[C@H](Cc1ccc(OC)cc1)NC(=O)[C@H](CC(=O)O)NC(=O)[C@H](CO)NC(=O)[C@@H](NC(=O)[C@](C)(Cc1ccccc1F)NC(=O)[C@@H](NC(=O)CNC(=O)[C@H](CCC(=O)O)NC(=O)C(C)(C)NC(=O)[C@@H](N)Cc1ccc(O)cc1)[C@@H](C)O)[C@@H](C)O)[C@@H](C)CC)C(=O)N[C@@H](C)C(=O)N[C@@H](CCC(N)=O)C(=O)NC(C)(C)C(=O)N[C@@H](CCCCNC(=O)COCCOCCNC(=O)COCCOCCNC(=O)CCCCCCCCCCCCC(=O)O)C(=O)N[C@@H](Cc1ccccc1)C(=O)N[C@H](C(=O)N[C@H](CCC(=O)O)C(=O)N[C@@](C)(Cc1ccc(O)cc1)C(=O)N[C@@H](CC(C)C)C(=O)N[C@H](C(=O)N[C@@H](CCC(=O)O)C(=O)NCC(=O)NCC(=O)N1CCC[C@H]1C(=O)N[C@@H](CO)C(=O)N[C@@H](CO)C(=O)NCC(=O)N[C@@H](C)C(=O)N1CCC[C@H]1C(=O)N1CCC[C@H]1C(=O)N1CCC[C@H]1C(=O)N[C@@H](CO)C(=O)N[C@@H](CCCCNC(=O)COCCOCCNC(=O)COCCOCCNC(=O)CCCCCCCCCCCCC(=O)O)C(N)=O)[C@@H](C)CC)[C@@H](C)CC` [Example 268] (H-Y[Aib]EGT[αMePhe(2-F)]TSDY(Me)SI[αMeL]LD[Orn]IAQ[Aib]K([AEEA-AEEA-C14 diacid])FI[dE][αMeY]LIEGGPSSGAPPPSK([AEEA-AEEA-C14 diacid])-NH2), the Emax was 92.3% at hGIPR (setting [3]) and 112% on hGLP-1R (HEK293, cAMP, 37° C., 0.1% bovine casein, arithmetic mean, read-out: hGLP-1R Emax, % ± SEM). For the same compound, the concentration giving a half-maximal response (EC50) at hGIPR (setting [1]) was 0.0265 nM; on hGCGR (setting [4]) it was over 9950 nM; at hGCGR (setting [2]), over 9950 nM.

Take `CC[C@H](C)[C@H](NC(=O)[C@H](CC(C)C)NC(=O)[C@](C)(Cc1ccc(O)cc1)NC(=O)[C@@H](CCC(=O)O)NC(=O)[C@@H](NC(=O)[C@H](Cc1ccccc1)NC(=O)[C@H](CCC(=O)O)NC(=O)C(C)(C)NC(=O)[C@H](CCC(N)=O)NC(=O)[C@H](C)NC(=O)[C@H](CCCCNC(=O)COCCOCCNC(=O)COCCOCCNC(=O)CC[C@H](NC(=O)CCCCCCCCCCCCC(=O)O)C(=O)O)NC(=O)[C@H](CCCN)NC(=O)[C@H](CC(=O)O)NC(=O)[C@H](CC(C)C)NC(=O)[C@](C)(CC(C)C)NC(=O)[C@@H](NC(=O)[C@H](CN)NC(=O)[C@H](Cc1ccc(O)cc1)NC(=O)[C@H](CC(=O)O)NC(=O)[C@H](CO)NC(=O)[C@@H](NC(=O)[C@](C)(Cc1ccccc1F)NC(=O)[C@@H](NC(=O)CNC(=O)[C@H](CCC(=O)O)NC(=O)C(C)(C)NC(=O)[C@@H](N)Cc1ccc(O)cc1)[C@@H](C)O)[C@@H](C)O)[C@@H](C)CC)[C@@H](C)CC)C(=O)N[C@@H](CCC(=O)O)C(=O)NCC(=O)NCC(=O)N[C@@H](CCCCNC(=O)COCCOCCNC(=O)COCCOCCNC(=O)CC[C@H](NC(=O)CCCCCCCCCCCCC(=O)O)C(=O)O)C(=O)N[C@@H](CO)C(=O)N[C@@H](CO)C(=O)NCC(=O)N[C@@H](C)C(=O)N1CCC[C@H]1C(=O)N1CCC[C@H]1C(=O)N1CCC[C@H]1C(=O)N[C@@H](CO)C(N)=O` [Example 200]: the Emax at hGIPR (setting [3]) is 83.7%; at hGIPR (HEK293, percent of maximal response to GIP(1-42)NH2, 37° C., 0.1% bovine casein, arithmetic mean, read-out: hGIPR Emax, % ± SEM), 96.3 ± 2.76%; at hGLP-1R (HEK293, 0.1% bovine casein and 1.0% human serum albumin, 37° C., read-out: hGLP-1R Emax, % ± SEM), 97.4%. The concentration for a half-maximal effect (EC50) on hGLP-1R (0.1% bovine casein and 1.0% human serum albumin, 37° C., read-out: hGLP-1R EC50, nM (SEM, n)) was 26.6 nM; on hGCGR (setting [4]), over 9950 nM; at hGCGR (cAMP, incubated at 37° C., 0.1% bovine casein (no human serum albumin), geometric mean, read-out: hGCGR EC50, nM (SEM, n)), over 9950 nM.

For orientation: Emax means the maximal effect, on the per cent scale that the assay sets. The EC50 is the concentration that produces a half-maximal response.

Values taken from US20230265151A1, “GIP/GLP1 CO-AGONIST COMPOUNDS” (priority 2020, published 2023).
